# From patent publication EP3319638B1, “CINEOL-CONTAINING COMPOSITION FOR THE TREATMENT OF TUMOURS AND/OR CANCERS” (Maria Clementine Martin Klosterfrau Vertriebsgesellschaft …, priority 2015, dated 2017)
# Entries after “also recorded” stand apart in the source; their conditions may differ.
# Assays:
# HNSCC-Zellen = test: MTT test: proliferation and viability of HNSCC cells, 288 h incubation; format: cell-based, human; details: 700 µM, MTT (Fig. 5)
# Source text: (§1) Die Zellproliferation wird mittels eines quantitativen kolorimetrischen 3-(4,5-Dimethylthiazol-2-yl)-2,5-diphenyltetrazoliumbromid-basierten (MTT) Zelltests bestimmt. Dieser Test bestimmt die Anzahl der lebensfähigen Zellen auf Basis der mitochondrialen Konversion von MTT.
# (§2) Dazu werden 5.000 Zellen in jedes Well einer 96-Well-Platte verteilt. Nach 24 Stunden Kultivierung werden vier verschiedene Konzentrationen von 5-Fluoruracil oder Cisplatin zu den Kulturen hinzugefügt oder die Zellen werden mit drei Dosen bestrahlt. Nach 48 Stunden werden in jedes Well 10 µl MTT-Farbstoff (5 mg/ml) zugefügt. Nach zwei Stunden Inkubation mit MTT wurden die Kristalle gelöst und vorsichtig für 24 Stunden bei Raumtemperatur geschüttelt. Mithilfe eines Multi-Well-ELISA-Lesegeräts wird die Absorption der reduzierten Formazan-Produkte in Kontrolle und Proben-Wells bei einer Welle von 570 nm und 690 nm bestimmt. Alle Wachstumsproben des MTT-Tests werden in dreifacher Ausführung ausgeführt.
# Dosisabhängige Inhibition der Proliferation von HNSCC durch 1,8-Cineol Um zu bestimmen, ob die Behandlung mit 1,8-Cineol zu einer Inhibition der zellulären Lebensfähigkeit von HNSCC führt, werden MTT-Tests durchgeführt. Zu diesem Zweck werden die Zellen für 288 Stunden in 300 µM bzw. 700 µM Cineol inkubiert.
# aktivem β-Catenin = test: Western blot of whole-cell protein: expression level of active β-catenin in HNSCC cell lines; format: cell-based, human; details: 24 h incubation, 100 µM, versus medium control (Fig. 1A)
# Protocol: (§3) Die im Rahmen der vorliegenden Erfindung untersuchten adhärenten humanen Kopf-Hals-Plattenepithel-Karzinom-Zelllinien (UT-SCC16A, UT-SCC-16B, UT-SCC-60A und UT-SCC-60B) werden in "Dulbecco's Modifiziertem Eagle's Medium" (DMEM, 4,5 g/l D-Glucose und L-Glutamin), welches mit 10 % fötalem Rinderserum (FBS) (beide Life Technologies, Carlsbad, CA, USA), 1 % Natriumpyruvat (PAN-Biotech, Aidenbach, Deutschland) und 1 % Antibiotika (10.000 U/ml Penicillin, 10.000 µg/ml Streptomycin) (Biochrom, Berlin, Deutschland) supplementiert ist, bei 37 °C unter 5 % CO2 und 95 % LuftAtmosphäre gelagert.
# (§4) Anti-Phospho-GSK-3α/β-Antikörper (Serin-21/-9) (#9331) und Anti-GAPDH-Antikörper (#2118) werden über Cell Signaling Technology (Danvers, MA, USA) bezogen. Beide Antikörper werden in einer […]-Verdünnung in TBS mit 3 % BSA (PAA Laboraties, Pasching, Österreich) verwendet. Anti-Phospho-GSK-3a/β-Antikörper (Y279/Y216) (#ab6847) werden von Abcam (Cambridge, UK) erhalten und in einer 1 : 1.000-Verdünnung in TBS mit 3 % BSA verwendet. Der gegen aktives-β-Catenin gerichtete Antikörper (#05-665) wird über Merck Milipore (Billerica, MA, USA) bezogen und in einer Verdünnung von 1 : 2.000 in TBS und 3 % Milchpulver (Carl Roth, Karlsruhe, Deutschland) verwendet. […]
# [1] = test system: Phospho-GSK-3 (Serin-9/-21); test: Immunohistochemistry: subcellular (endolysosomal) localisation of phospho-GSK-3; format: cell-based, human; details: 100 µM, versus control medium (Fig. 2)
# Protocol: Zur Detektion von […] innerhalb der Tumorzellen wird eine immunohistochemische Methode eingesetzt. Die Zellen werden 24 Stunden vor der Behandlung mit 100 µM Cineol in 4-Well-Kammerobjektträgern (Sarstadt AG, Numbrecht, Deutschland) überführt. Nach der Inkubation wurde das Medium entfernt und die Zellen wurden zweimal in PBS gewaschen. Zur intrazellulären Färbung wurden die Zellen mit 0,1 % Triton-X-100 (Sigma-Aldrich Chemie GmbH, Steinheim) in PBS fixiert. Der spezifische primäre Antikörper Anti-Phospho-GSK-3α/β (Serin-21/-9) (#9331) (Cell Signaling, Danvers, MA, USA) wird mit einem Antikörper-Verdünnungspuffer, welcher Blocking-Puffer (DCS LabLine, DCS, Hamburg, Deutschland) enthält, auf 1 : 50 verdünnt und in einer luftbefeuchteten Kammer für 1 Stunde bei Raumtemperatur (RT) inkubiert. Nach Waschen mit PBS wird der zweite Antikörper Ziege-anti-Maus FITC (Jackson ImmunoResearch Laboratories, West Grove, USA) in einer Verdünnung von 1 : 100 für 45 Minuten inkubiert. Die Zellen werden dreimal mit PBS gespült. Die Zellkerne werden für 1 Minute unter Einsatz von DAPI (1 µg/ml, Roche Diagnostics, Mannheim, Deutschland) gefärbt. Die Proben werden dreimal für 5 Minuten mit PBS gespült und anschließend in Fluoromount G (Southern Biotechnologies Associates, Birmingham, Alabama, USA) eingebettet. […]
# HNSCC-Zelllinien = test: MTT assay: vitality and proliferation of HNSCC cell lines, 250 h culture; format: cell-based, human
# Source text: as §1, §2
# (§5) Es werden weiterführende Untersuchungen durchgeführt zur Analyse des Einflusses von Cineol auf die Vitalität und Proliferation verschiedener permanenter Zelllinien. Hierzu werden einerseits die zwei HNSCC-Zelllinien und des Weiteren eine Fibroblastenzelllinie verwendet. Diese werden über einen Zeitraum von 250 Stunden mit verschiedenen Cineol-Konzentrationen kultiviert (1 mM bis 10 mM) und die Vitalität der Zellen wird jeweils mittels eines MTT-Assays untersucht.
# [2] = test system: GSK-3α/β (Tyrosin-279/-216); test: Western blot: phospho-GSK-3α/β at Tyr-279/-216 in HNSCC cell lines; format: cell-based, human; details: 100 µM, HNSCC cell lines (Fig. 1C)
# Protocol: as §3, §4
# Wnt11 [3] = test: Western blot: Wnt11 protein expression in HNSCC cell lines; format: cell-based, human
# Protocol: (§6) Die Zellen werden zweimal in eiskaltem PBS gewaschen und anschließend in RIPA-Puffer (Cell Signaling Technology, Danvers, MA, USA) mit Aprotinin, Pepstatin A, Protease Inhibitor Cocktail und Phenylmethansulfonylfluorid (Sigma-Aldrich, St. Louis, MO, USA) für 1,5 Stunden lysiert. Durch Zentrifugation (13.000 rpm, 4 °C, 10 Minuten) werden Zelltrümmer entfernt. Die Proteinkonzentration wird mittels des Bradford-Tests mit einfach konzentriertem Quick StartTM Dye Reagent (Bio-Rad Laboratories, Hercules, CA, USA) bestimmt. Es wird vierfach konzentrierter SDS-Probenpuffer hinzugefügt, und die Proben werden für 5 Minuten bei 95 °C denaturiert. Äquivalente Proteinmengen (30 µg) werden mittels SDS-PAGE in einem 10 % Polyacrylamidgel aufgetrennt und mittels Immunoblot auf Nitrocellulosemembranen übertragen. Für die Proteinextraktion aus Geweben werden die Gewebe zunächst in 500 µl RIPA-Puffer mit Protease-Inhibitoren unter Einsatz des TissueLyser LT (Qiagen, Hilden, Deutschland) homogenisiert, anschließend inkubiert und wie zuvor beschrieben zentrifugiert.
# Die Membranen werden mit TBS, enthaltend 3 % BSA oder 3 % Milchpulver, für 1 Stunde bei Raumtemperatur geblockt und anschließend mit dem primären Antikörper über Nacht bei 4 °C inkubiert. Nach einem Waschschritt mit TBS werden die Membranen mit dem speziesspezifischen sekundären Antikörper für 1 Stunde bei Raumtemperatur inkubiert. Die Proteinbanden werden unter Einsatz von Amersham™ ECL™ Primer Western Blotting Detection Reagent (GE Healthcare, Chalfont St Giles, Buckinghamshire, UK) und Fusion-FX7 sowie der korrespondierenden Software Fusion Bio-1D V12.14 (Vilber-Lourmat, Eberhardzell, Deutschland) nach ausgiebigem Waschen visualisiert. Die Nitrozellulosemembranen werden über Nacht bei 4 °C mit einem GAPDH-Antikörper inkubiert, um die Beladung jeder Spur zu bestimmen. Die Membranen werden nochmals gewaschen und mit dem sekundären Antikörper und ECL Detektionsreagenz inkubiert. […]
# P-Akt (Threonin-308) = test: Western blot: Akt phosphorylation at Thr-308 in HNSCC cell lines; format: cell-based, human; details: 100 µM, HNSCC cell lines (Fig. 3)
# Protocol: as §3
# as §6, with “Für die Proteinextraktion aus Geweben werden die Gewebe zunächst in 500 µl RIPA-Puffer mit Protease-Inhibitoren unter Einsatz des TissueLyser LT (Qiagen, Hilden, Deutschland) homogenisiert, anschließend inkubiert und wie zuvor beschrieben zentrifugiert.” left out
# Akt = test: Western blot: Akt expression in HNSCC cell lines; format: cell-based, human; details: 100 µM, HNSCC cell lines (Fig. 3)
# Protocol: as §3
# as §6, with “Für die Proteinextraktion aus Geweben werden die Gewebe zunächst in 500 µl RIPA-Puffer mit Protease-Inhibitoren unter Einsatz des TissueLyser LT (Qiagen, Hilden, Deutschland) homogenisiert, anschließend inkubiert und wie zuvor beschrieben zentrifugiert.” left out
# [4] = test system: phosphoryliertem GSK-3α/β (Serin-9/-21); test: Western blot: phosphorylation level of GSK-3α/β at Ser-9/-21 in HNSCC cell lines; format: cell-based, human; details: 100 µM, HNSCC cell lines (Fig. 1B)
# Protocol: as §3, §4
# Wnt11 [5] = test: RT2 EMT Profiler PCR array: Wnt11 mRNA level in HNSCC cell lines; format: cell-based, human; details: 100 µM, HNSCC cell lines (Fig. 4A)
# Source text: PCR-Test zur humanen epithelial-mesenchymalen Transition (EMT) Mit dem "Human Epithelial to Mesenchymal Transition (EMT) RT^2 Profiler™ PCR Array" wird die Expression von 84 Schlüsselgenen, welche ihre Expression während dieses Prozesses verändern oder die Expression von sich verändernden Genen regulieren, festgestellt. Der Test umfasst für Zelloberflächenrezeptoren, extrazelluläre Matrix und das Zytoskelett kodierende Gene, Gene, welche Zelladhäsion, Migration, Motilität und Morphogenese steuern; sowie Gene für Signaltransduktion und Transkriptionsfaktoren, welche die EMT sowie die damit assoziierten Prozesse bedingen.
# Weiterhin werden im Hinblick auf die Wnt/β-Catenin-Signalgebung aufgrund ihrer Involvierung in die Regulation der epithelial-mesenchymalen Transition (EMT) die transkriptionellen Profile verschiedener Gene, welche in Zusammenhang mit EMT stehen, in Reaktion auf 1,8-Cineol untersucht. Dafür wird der PCR-basierte "RT^2 EMT Profiler" eingesetzt, welcher die umfassende Analyse von 84 verschiedenen, in Zusammenhang mit EMT stehenden Genen erlaubt.
# Fibroblastenzelllinie = test: MTT assay: vitality and proliferation of a fibroblast cell line, 250 h culture; format: cell-based
# Source text: as §1, §2, §5
# [6] = from a concentration of 1mM to 2mM
smiles,measurement,setting,value
"CC12CCC(CC1)C(C)(C)O2 [1,8-Cineol, 1,3,3-Trimethyl-2-oxabicyclo[2.2.2]octan]",Proliferation und zelluläre Lebensfähigkeit von HNSCC-Zellen,HNSCC-Zellen,stark verringerte zelluläre Lebensfähigkeit
same,Proliferation und zelluläre Lebensfähigkeit von HNSCC-Zellen,HNSCC-Zellen; listed as Cineol,starker Rückgang der Proliferation und zellulären Lebensfähigkeit
same,Expressionslevel von aktivem β-Catenin,aktivem β-Catenin,starke Abnahme von aktivem β-Catenin
same,endolysosomale Lokalisation von GSK-3,[1],Rückgang der endolysosomalen Lokalisation von Phospho-GSK-3 (Serin-9/-21); also recorded: verringerte endolysosomale Lokalisation von GSK-3
same,Einfluss auf die Progression und Vitalität von HNSCC,HNSCC-Zelllinien; 1 mM to 10 mM,inhibierender Einfluss
same,zytotoxische Wirkung,HNSCC-Zelllinien; 10mM,deutlich zytotoxische Wirkung
same,proliferationshemmende Wirkung,HNSCC-Zelllinien; [6],starke proliferationshemmende Wirkung
same,Expressionslevel von GSK-3α/β (Tyrosin-279/-216),[2],nicht nennenswert beeinflusst
same,Proteinexpression von Wnt11,"Wnt11 [3]; cell lines 16A, SCC154, 60B and Carey24, 24 h, 1mM",starke Herunterregulation von Wnt11
same,Wnt11 Proteinexpression,"Wnt11 [3]; cell lines 16B and 60A, 24 h, 1mM","Rückgang der Wnt11 Proteinexpression, auch wenn dieser geringer ist"
same,Proteinexpression von Wnt11,"Wnt11 [3]; dose dependence, six HNSCC cell lines (Fig. 4B)","dosisabhängig in Reaktion auf 1,8-Cineol abnimmt"
same,Phosphorylierung von Threonin-308 von Akt,P-Akt (Threonin-308),Weder die Expression noch die Phosphorylierung von Threonin-308 von Akt wird in den analysierten Zelllinien nennenswert beeinflusst
same,Expression von Akt,Akt,Weder die Expression noch die Phosphorylierung von Threonin-308 von Akt wird in den analysierten Zelllinien nennenswert beeinflusst
same,Level von bzw. Gehalt an phosphoryliertem GSK-3α/β (Serin-9/-21),[4],verringerten Level von bzw. Gehalt an phosphoryliertem GSK-3α/β (Serin-9/-21)
same,mRNA-Level von Wnt11,Wnt11 [5],starken Rückgang der mRNA-Level von Wnt11
same,Einfluss auf die Progression und Vitalität von Fibroblasten,Fibroblastenzelllinie; 1 mM to 10 mM,inhibierender Einfluss
same,zytotoxische Wirkung,Fibroblastenzelllinie; 10mM,deutlich zytotoxische Wirkung
same,proliferationshemmende Wirkung,Fibroblastenzelllinie; [6],starke proliferationshemmende Wirkung
